The text below walks through data of patent US8309545B2, “Benzofuran potassium channel blockers and uses thereof” (Bionomics Limited, priority 2006, dated 2012).

Molecules are shown by their SMILES.

T1 sequence (P22001 whole entry): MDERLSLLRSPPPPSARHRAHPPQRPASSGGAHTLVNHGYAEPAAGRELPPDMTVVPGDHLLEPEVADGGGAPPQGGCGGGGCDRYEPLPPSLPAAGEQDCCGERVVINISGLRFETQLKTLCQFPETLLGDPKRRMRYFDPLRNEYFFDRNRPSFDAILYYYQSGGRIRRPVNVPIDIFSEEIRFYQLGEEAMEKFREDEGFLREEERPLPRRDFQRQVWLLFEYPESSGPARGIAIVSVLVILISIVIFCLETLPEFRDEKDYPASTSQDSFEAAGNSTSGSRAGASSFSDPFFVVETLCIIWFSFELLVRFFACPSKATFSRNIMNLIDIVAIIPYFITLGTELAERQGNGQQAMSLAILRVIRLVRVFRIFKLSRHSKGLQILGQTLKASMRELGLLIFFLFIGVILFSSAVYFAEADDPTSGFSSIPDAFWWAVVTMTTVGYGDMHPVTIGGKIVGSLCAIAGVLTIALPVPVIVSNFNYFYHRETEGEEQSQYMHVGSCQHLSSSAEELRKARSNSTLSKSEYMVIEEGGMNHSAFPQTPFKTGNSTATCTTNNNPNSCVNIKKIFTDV

This experiment has as its target T1, human Kv1.3 ion channel (Homo sapiens, UniProt P22001).
T1 construct: Human Jurkat cells (which endogenously express hKv1.3) were used in place of rat L929 cells; endogenous in cells; host or cells: Human Jurkat cells
As to the kind of experiment: Inhibition of Kv1.3 currents, planar patch clamp in Jurkat cells. To be noted: Human Jurkat cells (endogenous hKv1.3), averaged dose response data from 3 or more cells. The class given is cell-based. The procedure:
Potency of compounds to inhibit the human Kv1.3 ion channel were determined as follows:
EC50 values for inhibition of Kv1.3 currents were determined by the method according to Schmitz et al (2005) Molecular Pharmacology 68, 1254-1270 with the following differences: • 1. Human Jurkat cells (which endogenously express hKv1.3) were used in place of rat L929 cells. • 2. All electrophysiology was performed using planar patch clamp (Port-A-Patch, Nanion Technologies Gmbh, Munich) in contrast to conventional patch clamp. • 3. EC50 values shown were determined from averaged dose response data obtained from 3 or more cells.
One may read the EC50 as the midpoint of the concentration-response curve. Regarding `CC(=O)c1c(OCCN2CCOCC2)c(OCCC(C)(C)c2ccccc2)c2occc2c1C` (racemic) [Example 46b, rac-1-[4-Methyl-7-(3-methyl-3-phenyl-butoxy)-6-(2-morpholin-4-yl-ethoxy)-benzofuran-5-yl]ethanone], a half-maximal effect (EC50) was put at 198 nM. That is a sub-micromolar value. The compound `Cc1cc(=O)c2c(C)c3ccoc3c(OC[C@H]3C[C@@H]3c3ccccc3)c2o1` (racemic) [Example 58a, rac-4,7-Dimethyl-9-(1S,2S-2-phenyl-cyclopropylmethoxy)-furo[3,2-g]chromen-5-one] registered an EC50 of 165 nM. The EC50 values of the last two compounds are within 1.5-fold of each other. For `CC(=O)c1c(O)c(OC[C@H]2C[C@@H]2c2ccccc2)c2occc2c1C` (racemic) [Example 58b, rac-1-[6-Hydroxy-4-methyl-7-(1S,2S-2-phenyl-cyclopropylmethoxy)-benzofuran-5-yl]-ethanone] the value was 512 nM. `Cc1cc(=O)c2c(C)c3ccoc3c(OC[C@H]3C[C@H]3c3ccccc3)c2o1` (racemic) [Example 59a, rac-4,7-Dimethyl-9-(1S,2R-2-phenyl-cyclopropylmethoxy)-furo[3,2-g]chromen-5-one]: the EC50 is 215 nM. With `COc1c2occc2c(C)c2c(=O)cc(C)oc12` [4 a)], the concentration for a half-maximal effect (EC50) was determined as 790 nM. This EC50 is about 3.7-fold higher than that of the compound before. For the compound `COc1c(OCCCc2ccccc2)c(C(C)=O)c(C)c2ccoc12` [4 c)], a half-maximal effect (EC50) was put at 225 nM. This EC50 lies about 3.5-fold lower than the previous one. For `COc1c(C(C)=O)c(OCCOc2ccccc2)c(OC)c2occc12` [5 b)] the value was 880 nM. Under `COc1c(C(C)=O)c(OCCCOc2ccccc2)c(OC)c2occc12` [6 b)] stands 720 nM. For `COc1c(C(C)=O)c(OCCCc2ccccc2)c(CN(C)C)c2occc12` [13 b)] the value was 480 nM; for `COc1c(C(C)=O)c(OCCCCOc2ccccc2)c(OCCN2CCOCC2)c2occc12` [14 c)], 910 nM; for `COc1c(C(C)=O)c(OCCN(C)C)c(OCCCc2ccccc2)c2occc12` [15 b)], 160 nM. Compound `Cc1cc(=O)c2c(C)c3ccoc3c(OCCCc3ccccc3)c2o1` [18 a)] displayed an EC50 of 114 nM. `CC(=O)c1c(OCCN(C)C)c(OCCCc2ccccc2)c2occc2c1C` [18 c)] came in with an EC50 of 420 nM. For `CC(=O)c1c(OCCn2ccnc2)c(OCCCc2ccccc2)c2occc2c1C` [20 b)] the value was 68 nM; for `CC(=O)c1c(OCCn2nnc(N)n2)c(OCCCc2ccccc2)c2occc2c1C` [21 a)], 23 nM; for `CC(=O)c1c(OCCn2nnnc2N)c(OCCCc2ccccc2)c2occc2c1C` [21 b)], 160 nM. `CC(=O)c1cc2ccoc2c(OCCCc2ccccc2)c1OCCN1CCOCC1` [22 c)] showed an EC50 of 610 nM. For `CC(=O)c1c(OCCN2CCOCC2)cc2occc2c1OCCCCOc1ccccc1` [23 d)] the value was 174 nM; for `CC(=O)c1c(OCCCCN2CCOCC2)c(OCCCc2ccccc2)c2occc2c1C` [28 b)], 640 nM; for `COc1c(C(C)=O)c(OCCCc2ccccc2)c(OC)c2occc12` [Example 1, 5-Acetyl-4,7-dimethoxy-6-(3-(phenyl)propoxy)benzofuran], 290 nM.

Regarding `COc1c(C(C)=O)c(OCCCCOc2ccccc2)c(OC)c2occc12` [Example 2], the EC50 stood at 420 nM. Under `CC(=O)c1cc2ccoc2cc1OCCCc1ccccc1` [Example 3, 5-Acetyl-6-(3-phenylpropoxy)benzofuran] stands 184 nM. The compound `COc1c(C(C)=O)c(OCCSc2ccccc2)c(OC)c2occc12` [Example 7, 5-Acetyl-4,7-dimethoxy-6-(2-(thiophenoxy)ethoxy)benzofuran] returned an EC50 of 680 nM.

`COc1c(C(C)=O)c(OCCCSc2ccccc2)c(OC)c2occc12` [Example 8, 5-Acetyl-4,7-dimethoxy-6-(3-(phenylthio)propoxy)benzofuran] yielded an EC50 of 750 nM. The EC50 values of the last two compounds are within 1.5-fold of each other.

`COc1c(C(C)=O)c(OCCS(=O)(=O)c2ccccc2)c(OC)c2occc12` [Example 9, 5-Acetyl-4,7-dimethoxy-6-(2-(benzenesulfonyl)ethoxy)benzofuran] displayed an EC50 of 2420 nM. For `COc1c(C(C)=O)c(OCCCS(=O)(=O)c2ccccc2)c(OC)c2occc12` [Example 10, 5-Acetyl-4,7-dimethoxy-6-(3-(benzenesulfonyl)propoxy)benzofuran] the value was 1510 nM; for `COc1c(C(C)=O)c(OCCNc2ccccc2)c(OC)c2occc12` [Example 11, 5-Acetyl-4,7-dimethoxy-6-(2-(phenylamino)ethoxy)benzofuran], 980 nM; for `COc1c(C(C)=O)c(OCCCNc2ccccc2)c(OC)c2occc12` [Example 12, 5-Acetyl-4,7-dimethoxy-6-(3-(phenylamino)propoxy)benzofuran], 690 nM.

For the compound `COc1c(C(C)=O)c(OCCN2CCOCC2)c(OCCCc2ccccc2)c2occc12` [Example 16, 5-Acetyl-6-(2-morpholinoethoxy)-4-methoxy-7-(3-phenylpropoxy)benzofuran], a half-maximal effect (EC50) was put at 110 nM. Under `COc1c(C(C)=O)c(OCCn2ccnc2)c(OCCCc2ccccc2)c2occc12` [Example 17, 5-Acetyl-6-(2-imidazol-1-ylethoxy)-4-methoxy-7-(3-phenylpropoxy)benzofuran] stands 81 nM; under `CC(=O)c1c(OCCN2CCOCC2)c(OCCCc2ccccc2)c2occc2c1C` [Example 19, 5-Acetyl-6-(2-morpholinoethoxy)-4-methyl-7-(3-phenylpropoxy)benzofuran], 51 nM; under `CCOC(=O)CC(=O)c1c(OCCN2CCOCC2)cc2occc2c1OCCCCOc1ccccc1` [Example 24, 3-[6-(2-Morpholin-4-ylethoxy)-4-(4-phenoxybutoxy)benzofuran-5-yl]-3-oxo-propionic acid ethyl ester], 590 nM. For `CC(=O)c1c(OCCN(C)C)cc2occc2c1OCCCCOc1ccccc1` [Example 25, 5-Acetyl-6-(2-dimethylamino-ethoxy)-4-(4-phenoxybutoxy)benzofuran] the value was 600 nM. For `CC(=O)c1c(OCCN2CCN(C)CC2)c(OCCCc2ccccc2)c2occc2c1C` [Example 26] the value was 140 nM; for `CC(=O)c1c(OCCCn2ccnc2)c(OCCCc2ccccc2)c2occc2c1C` [Example 29, 5-Acetyl-6-(3-imidazol-1-yl-propoxy)-4-methyl-7-(3-phenylpropoxy)-benzofuran], 136 nM; for `CC(=O)c1c(OCCCCn2ccnc2)c(OCCCc2ccccc2)c2occc2c1C` [Example 30, 5-Acetyl-6-(4-imidazol-1-yl-butoxy)-4-methyl-7-(3-phenylpropoxy)-benzofuran], 120 nM.

Consider `CC(=O)c1c(OCCOc2cnccn2)c(OCCCc2ccccc2)c2occc2c1C` [Example 31b, 1-{4-Methyl-7-(3-phenyl-propoxy)-6-[2-(pyrazin-2-yloxy)-ethoxy]-benzofuran-5-yl}-ethanone], for which the EC50 turned out to be 81 nM.

In turn, `CC(=O)c1c(OCCNC2CCCC2)c(OCCCc2ccccc2)c2occc2c1C` [Example 32, 1-[6-(2-Cyclopentylamino-ethoxy)-4-methyl-7-(3-phenyl-propoxy)-benzofuran-5-yl]-ethanone] returned an EC50 of 49 nM. This EC50 is about 1.7-fold lower than that of the compound before. As to `CC(=O)c1c(OCCN2CCCCC2)c(OCCCc2ccccc2)c2occc2c1C` [Example 33, 1-[4-Methyl-7-(3-phenyl-propoxy)-6-(2-piperidin-1-yl-ethoxy)-benzofuran-5-yl]-ethanone], the EC50 amounted to 343 nM.

In turn, `CC(=O)c1c(OCCN2CCCC2)c(OCCCc2ccccc2)c2occc2c1C` [Example 34, 1-[4-Methyl-7-(3-phenyl-propoxy)-6-(2-pyrrolidin-1-yl-ethoxy)-benzofuran-5-yl]-ethanone] returned an EC50 of 223 nM.

Compound `CC(=O)c1c(OCCn2nccn2)c(OCCCc2ccccc2)c2occc2c1C` [Example 35, 1-[4-Methyl-7-(3-phenyl-propoxy)-6-(2-[1,2,3]triazol-2-yl-ethoxy)-benzofuran-5-yl]ethanone] came in with an EC50 of 100 nM. For `CC(=O)c1c(OCCn2ccnn2)c(OCCCc2ccccc2)c2occc2c1C` [Example 36, 1-[4-Methyl-7-(3-phenyl-propoxy)-6-(2-[1,2,3]triazol-1-yl-ethoxy)-benzofuran-5-yl]-ethanone] the value was 122 nM. Turning to `CC(=O)c1c(OCCn2cncn2)c(OCCCc2ccccc2)c2occc2c1C` [Example 37, 1-[4-Methyl-7-(3-phenyl-propoxy)-6-(2-[1,2,4]triazol-1-yl-ethoxy)-benzofuran-5-yl]-ethanone], the EC50 is 74 nM. `CC(=O)c1c(OCCNCCO)c(OCCCc2ccccc2)c2occc2c1C` [Example 39, 5-Acetyl-6-(2-(2-Hydroxy-ethylamino)-ethoxy)-4-methyl-7-(3-phenylpropoxy)-benzofuran] had an EC50 of 576 nM.

With `CC(=O)c1c(OCCc2ccccn2)c(OCCCc2ccccc2)c2occc2c1C` [Example 40, 5-Acetyl-4-methyl-7-(3-phenylpropoxy)-6-(2-pyridin-2-yl-ethoxy)benzofuran], the EC50 was determined as 66 nM. For `CC(=O)c1c(OCCN2CCOCC2)c(OCCCc2ccccc2)c2oc(Cl)cc2c1C` [Example 41, 1-[2-Chloro-4-methyl-6-(2-morpholin-4-yl-ethoxy)-7-(3-phenyl-propoxy)-benzofuran-5-yl]-ethanone] the value was 215 nM; for `CC(=O)c1c(OCC(=O)N2CCOCC2)c(OCCCc2ccccc2)c2occc2c1C` [Example 42, 2-[5-Acetyl-4-methyl-7-(3-phenyl-propoxy)-benzofuran-6-yloxy]-1-morpholin-4-yl-ethanone], 480 nM; for `Cc1cc(=O)c2c(C)c3ccoc3c(OCCOc3ccc(F)cc3)c2o1` [Example 43b, 9-[2-(4-Fluoro-phenoxy)-ethoxy]-4,7-dimethyl-furo[3,2-g]chromen-5-one], 229 nM.
